Patent publication US6355799B1, “Substituted benzene compounds, process for their preparation, and herbicidal and defoliant compositions containing them” (ISK Americas Incorporated, priority 1997, dated 2002)

Tests used:
Type in all cases: in vivo
[1] = tested on: redroot pigweed (Amaranthus retroflexus, AMARE); assay: Pre-emerge test, greenhouse herbicide activity screening; settings: rated 14 days after application, 0 = no damage, 100 = complete death
Summary of the method: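 Sandy loam pots; pre-emerge: sown 1 d pre-spray, surface-watered after, then bottom-watered. Post-emerge: sown 8–21 d before, 2–3 leaf stage, + 0.25% v/v NIS, bottom-watered. Acetone, 187 l/ha track spray, 15–1000 g ai/ha. 0–100 injury score, day 14.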

[2] = tested on: barnyardgrass (Echinochloa crus-galli, ECHCG); assay: as above; settings: rated 14 days after application, 0 = no damage, 100 = complete death
Summary of the method: (§1)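 Visual ratings on a 0-100 scale (0 no damage, 100 all plants dead) were taken at 14 days after treatment. Rates of 15-1000 g ai/ha in acetone, 187 l/ha, were sprayed onto soil one day after planting (pre-emerge) or onto 2-3 leaf plants with 0.25% v/v surfactant (post-emerge).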

[3] = tested on: green foxtail (Setaria viridis, SETVI); assay: as above; settings: rated 14 days after application, 0 = no damage, 100 = complete death
Summary of the method: as §1

[4] = tested on: ivyleaf morningglory (Ipomoea hederacea, IPOHE); assay: as above; settings: rated 14 days after application, 0 = no damage, 100 = complete death
Summary of the method: as §1

[5] = tested on: johnsongrass (Sorghum halepense, SORHA); assay: as above; settings: rated 14 days after application, 0 = no damage, 100 = complete death
Summary of the method: as §1

[6] = tested on: lambsquarters (Chenopodium album, CHEAL); assay: as above; settings: rated 14 days after application, 0 = no damage, 100 = complete death
Summary of the method: as §1

[7] = tested on: large crabgrass (Digitaria sanguinalis, DIGSA); assay: as above; settings: rated 14 days after application, 0 = no damage, 100 = complete death
Summary of the method: as §1

[8] = tested on: sicklepod (Cassia obtusifolia, CASOB); assay: as above; settings: rated 14 days after application, 0 = no damage, 100 = complete death
Summary of the method: as §1

[9] = tested on: velvetleaf (Abutilon theophrasti, ABUTH); assay: as above; settings: rated 14 days after application, 0 = no damage, 100 = complete death
Summary of the method: as §1

[10] = tested on: field corn (Zea mays L., var. Dekalb 535, CORN); assay: Pre-emerge test, crop safety; settings: rated 14 days after application, 0 = no damage, 100 = complete death
Summary of the method: (§2)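 Herbicidal damage is scored 0 (none) to 100 (complete plant death) two weeks after a simulated field spray. Rates span 15–1000 g ai/ha, delivered in acetone at 187 l/ha. For post-emergence treatments, plants have 2–3 leaves and the spray carries 0.25% v/v non-ionic surfactant.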

[11] = tested on: upland rice (Oryza sp., var. Tebonnet, RICE); assay: Pre-emerge test, crop safety; settings: rated 14 days after application, 0 = no damage, 100 = complete death
Summary of the method: as §2

[12] = tested on: barnyardgrass (Echinochloa crus-galli, ECHCG); assay: Post-emerge test, greenhouse herbicide activity screening; settings: post-emerge, 14 days after application, rating scale 0-100
Summary of the method: (§3)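 Compounds in acetone were track-sprayed at 15–1000 g ai/ha: pre-emergence onto soil sown the previous day, then top-watered to incorporate and later bottom-watered; post-emergence onto 2–3 leaf plants with 0.25% v/v surfactant, bottom-watered only. Ratings on a 0–100 phytotoxicity scale were taken at day 14.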

[13] = tested on: green foxtail (Setaria viridis, SETVI); assay: as above; settings: post-emerge, 14 days after application, rating scale 0-100
Summary of the method: as §3

[14] = tested on: ivyleaf morningglory (Ipomoea hederacea, IPOHE); assay: as above; settings: post-emerge, 14 days after application, rating scale 0-100
Summary of the method: as §3

[15] = tested on: johnsongrass (Sorghum halepense, SORHA); assay: as above; settings: post-emerge, 14 days after application, rating scale 0-100
Summary of the method: as §3

[16] = tested on: lambsquarters (Chenopodium album, CHEAL); assay: as above; settings: post-emerge, 14 days after application, rating scale 0-100
Summary of the method: as §3

[17] = tested on: large crabgrass (Digitaria sanguinalis, DIGSA); assay: as above; settings: post-emerge, 14 days after application, rating scale 0-100
Summary of the method: as §3

[18] = tested on: redroot pigweed (Amaranthus retroflexus, AMARE); assay: as above; settings: post-emerge, 14 days after application, rating scale 0-100
Summary of the method: as §3

[19] = tested on: sicklepod (Cassia obtusifolia, CASOB); assay: as above; settings: post-emerge, 14 days after application, rating scale 0-100
Summary of the method: as §3

[20] = tested on: velvetleaf (Abutilon theophrasti, ABUTH); assay: as above; settings: post-emerge, 14 days after application, rating scale 0-100
Summary of the method: as §3

[21] = tested on: field corn (Zea mays L., var. Dekalb 535, CORN); assay: Post-emerge test, crop safety; settings: post-emerge, 14 days after application, rating scale 0-100
Summary of the method: as §1

[22] = tested on: upland rice (Oryza sp., var. Tebonnet, RICE); assay: Post-emerge test, crop safety; settings: post-emerge, 14 days after application, rating scale 0-100
Summary of the method: as §1

COc1c(Cl)cc(F)c(-n2c(=O)cc(C(F)(F)F)n(N)c2=O)c1NC(=O)c1ccc2ccccc2c1 [2-77]
Pre-emerge Herbicidal Activity, phytotoxicity rating (0-100), AMARE ([1]; 63 g ai/ha): 70 | Pre-emerge Herbicidal Activity, phytotoxicity rating (0-100), AMARE ([1]; 250 g ai/ha): 100 | Pre-emerge Herbicidal Activity, phytotoxicity rating (0-100), ECHCG ([2]; 63 g ai/ha): 0 | Pre-emerge Herbicidal Activity, phytotoxicity rating (0-100), ECHCG ([2]; 250 g ai/ha): 0 | Pre-emerge Herbicidal Activity, phytotoxicity rating (0-100), SETVI ([3]; 63 g ai/ha): 0 | Pre-emerge Herbicidal Activity, phytotoxicity rating (0-100), SETVI ([3]; 250 g ai/ha): 60 | Pre-emerge Herbicidal Activity, phytotoxicity rating (0-100), IPOHE ([4]; 63 g ai/ha): 0 | Pre-emerge Herbicidal Activity, phytotoxicity rating (0-100), IPOHE ([4]; 250 g ai/ha): 30 | Pre-emerge Herbicidal Activity, phytotoxicity rating (0-100), SORHA ([5]; 63 g ai/ha): 0 | Pre-emerge Herbicidal Activity, phytotoxicity rating (0-100), SORHA ([5]; 250 g ai/ha): 0 | Pre-emerge Herbicidal Activity, phytotoxicity rating (0-100), CHEAL ([6]; 63 g ai/ha): 90 | Pre-emerge Herbicidal Activity, phytotoxicity rating (0-100), CHEAL ([6]; 250 g ai/ha): 100 | Pre-emerge Herbicidal Activity, phytotoxicity rating (0-100), DIGSA ([7]; 63 g ai/ha): 0 | Pre-emerge Herbicidal Activity, phytotoxicity rating (0-100), DIGSA ([7]; 250 g ai/ha): 30 | Pre-emerge Herbicidal Activity, phytotoxicity rating (0-100), CASOB ([8]; 63 g ai/ha): 0 | Pre-emerge Herbicidal Activity, phytotoxicity rating (0-100), CASOB ([8]; 250 g ai/ha): 30 | Pre-emerge Herbicidal Activity, phytotoxicity rating (0-100), ABUTH ([9]; 63 g ai/ha): 30 | Pre-emerge Herbicidal Activity, phytotoxicity rating (0-100), ABUTH ([9]; 250 g ai/ha): 100 | Pre-emerge phytotoxicity rating (0-100), crop damage, CORN ([10]; 63 g ai/ha): 0 | Pre-emerge phytotoxicity rating (0-100), crop damage, CORN ([10]; 250 g ai/ha): 0 | Pre-emerge phytotoxicity rating (0-100), crop damage, RICE ([11]; 63 g ai/ha): 0 | Pre-emerge phytotoxicity rating (0-100), crop damage, RICE ([11]; 250 g ai/ha): 20 | phytotoxicity rating ECHCG ([12]; 63 g ai/ha): 0 | phytotoxicity rating ECHCG ([12]; 250 g ai/ha): 0 | phytotoxicity rating SETVI ([13]; 63 g ai/ha): 0 | phytotoxicity rating SETVI ([13]; 250 g ai/ha): 0 | phytotoxicity rating IPOHE ([14]; 63 g ai/ha): 60 | phytotoxicity rating IPOHE ([14]; 250 g ai/ha): 95 | phytotoxicity rating SORHA ([15]; 63 g ai/ha): 0 | phytotoxicity rating SORHA ([15]; 250 g ai/ha): 0 | phytotoxicity rating CHEAL ([16]; 63 g ai/ha): 100 | phytotoxicity rating CHEAL ([16]; 250 g ai/ha): 80 | phytotoxicity rating DIGSA ([17]; 63 g ai/ha): 0 | phytotoxicity rating DIGSA ([17]; 250 g ai/ha): 0 | phytotoxicity rating AMARE ([18]; 63 g ai/ha): 10 | phytotoxicity rating AMARE ([18]; 250 g ai/ha): 100 | phytotoxicity rating CASOB ([19]; 63 g ai/ha): 40 | phytotoxicity rating CASOB ([19]; 250 g ai/ha): 100 | phytotoxicity rating ABUTH ([20]; 63 g ai/ha): 100 | phytotoxicity rating ABUTH ([20]; 250 g ai/ha): 100 | phytotoxicity rating CORN ([21]; 63 g ai/ha): 0 | phytotoxicity rating CORN ([21]; 250 g ai/ha): 10 | phytotoxicity rating RICE ([22]; 63 g ai/ha): 20 | phytotoxicity rating RICE ([22]; 250 g ai/ha): 40
